According to the NIST ThermoML archive (doi:10.1021/acs.jced.7b00604):

Key:
[1] = molar heat capacity at constant pressure; details: 100 kPa, Liquid, Extra sensitive DSC
[2] = 100 kPa, Liquid; for speed of sound: Frequency=3 MHz, Sing-around technique in a fixed-path interferometer; for mass density: Vibrating tube method
[3] = xn = mol fraction of the nth substance listed; details: 100 kPa, Liquid, x1 = 1; for speed of sound: Frequency=3 MHz, Sing-around technique in a fixed-path interferometer; for mass density: Vibrating tube method

COCCO [2-methoxyethan-1-ol]
Details	mass density, [2] [kg/m3]	molar heat capacity at constant pressure, [1] [J/K/mol]	speed of sound, [2] [m/s]
298.15 K	960.31	175.32	1341.8
303.15 K	955.71	176.9	1324.1
308.15 K	951.08	178.41	1307.3
313.15 K	946.41	179.96	1292
318.15 K	941.72	181.45	1274.2
323.15 K	936.99	183.02	1259.4

CCCC[n+]1ccn(C)c1.O=S(=O)([N-]S(=O)(=O)C(F)(F)F)C(F)(F)F + COCCO
[3]
Details	mass density [kg/m3]	speed of sound [m/s]
298.15 K	1437.12	1227.8
303.15 K	1432.51	1216.7
308.15 K	1427.43	1205.8
313.15 K	1422.86	1194.9
318.15 K	1417.91	1184.2
323.15 K	1413.58	1173.6

CCCC[n+]1ccn(C)c1.O=S(=O)([N-]S(=O)(=O)C(F)(F)F)C(F)(F)F
Details	mass density, [2] [kg/m3]	molar heat capacity at constant pressure, [1] [J/K/mol]	speed of sound, [2] [m/s]
298.15 K	1437.12	567.22	1227.8
303.15 K	1432.51	569.85	1216.7
308.15 K	1427.43	572.64	1205.8
313.15 K	1422.86	575.47	1194.9
318.15 K	1417.91	578.38	1184.2
323.15 K	1413.58	581.52	1173.6
